# Measurements published in US7008905B2, “Method of combating undesired plant growth on cereals” (BASF Aktiengesellschaft, priority 2000, dated 2006).
# Columns and labels:
# Format in all cases: in vivo
# wheat = assay: Pre-emergence test, tolerance in wheat; conditions: in vivo
# Procedure: (§1) The pre-emergence tests involve spraying a liquid formulation of the compound onto the soil in which the seeds of the plant species mentioned above has recently been sown.
# (§2) The soil used in the tests is a prepared horticultural loam. The formulations used in the tests are prepared from solutions of the test compounds in acetone containing 0.4% by weight of an alkylphenol/ethylene oxide condensate available under the trade mark TRITON X-155.
# (§3) These acetone solutions are diluted with water and the resulting formulations applied at dosage levels corresponding to 15 g, 30 g, 60 g, 120 g or 240 g of active material per hectare in a volume equivalent to 900 liters per hectare. In these tests untreated sown soil is used as control. The herbicidal effects of the test compounds are assessed visually three weeks after spraying the soil and are recorded an a 0 to 100 scale. A rating 0 indicates growth as untreated control, a rating 100 indicates death. An increase of 10 unit an the linear scale approximates to a 10% increase in the level of effect. The results of the assessment are set out in Tables 1 to 4.
# Poa annua = assay: Pre-emergence test, weed control; conditions: 3 weeks after treatment, rating 0-100 (100=death), Table 3
# Procedure: as §1, §2
# (§4) In these tests untreated sown soil is used as control. The herbicidal effects of the test compounds are assessed visually three weeks after spraying the soil and are recorded an a 0 to 100 scale. A rating 0 indicates growth as untreated control, a rating 100 indicates death. An increase of 10 unit an the linear scale approximates to a 10% increase in the level of effect. The results of the assessment are set out in Tables 1 to 4.
# Stellaria media = assay: Pre-emergence test, weed control; conditions: 3 weeks after treatment, rating 0-100 (100=death), Table 3
# Procedure: as §1, §2, §4
# Galium aparine = assay: Pre-emergence test, weed control; conditions: 3 weeks after treatment, rating 0-100 (100=death), Table 3
# Procedure: as §1, §2, §4
# Alopecurus myosuroides = assay: Pre-emergence test, weed control; conditions: 3 weeks after treatment, rating 0-100 (100=death), Table 3
# Procedure: as §1, §2, §4
# Apera spica-venti = assay: Pre-emergence test, weed control; conditions: 3 weeks after treatment, rating 0-100 (100=death), Table 3
# Procedure: as §1, §2, §4
# Lolium perenne = assay: Pre-emergence test, weed control; conditions: 3 weeks after treatment, rating 0-100 (100=death), Table 3
# Procedure: as §1, §2, §4
# Setaria viridis = assay: Pre-emergence test, weed control; conditions: 3 weeks after treatment, rating 0-100 (100=death), Table 3
# Procedure: as §1, §2, §4
# Matricaria inodora = assay: Pre-emergence test, weed control; conditions: 3 weeks after treatment, rating 0-100 (100=death), Table 3
# Procedure: as §1, §2, §4
# Veronica persica = assay: Pre-emergence test, weed control; conditions: 3 weeks after treatment, rating 0-100 (100=death), Table 3
# Procedure: as §1, §2, §4
# Lamium purpureum = assay: Pre-emergence test, weed control; conditions: 3 weeks after treatment, rating 0-100 (100=death), Table 3
# Procedure: as §1, §2, §4
# [1] = test system: Triticum aestivum variety “Kanzler”; assay: Pre-emergence test, selectivity; conditions: 3 weeks after treatment, rating 0-100 (100=death), Table 4
# Procedure: as §1, §2, §3
# [2] = test system: Triticum aestivum variety “Monopol”; assay: Pre-emergence test, selectivity; conditions: 3 weeks after treatment, rating 0-100 (100=death), Table 4
# Procedure: as §1, §2, §3
# PAPRH = assay: Pre-emergence test, weed control; conditions: 3 weeks after treatment, rating 0-100 (100=death), Table 3
# Procedure: as §1, §2, §3
# VIOAR = assay: Pre-emergence test, weed control; conditions: 3 weeks after treatment, rating 0-100 (100=death), Table 3
# Procedure: as §1, §2, §3
smiles,measurement,setting,value
Cc1cnc(-c2ccc(C(F)(F)F)cc2)nc1Oc1ccnc(Cl)c1 [REF-4],maximum tolerated dose in wheat / dose at which sufficiently selective in wheat,wheat,60 g/ha
same,POAAN weed control rating,Poa annua; 0.030 kg/ha,100
same,POAAN weed control rating,Poa annua; 0.060 kg/ha,100
same,POAAN weed control rating,Poa annua; 0.120 kg/ha,100
same,POAAN weed control rating,Poa annua; 0.240 kg/ha,100
same,STEME weed control rating,Stellaria media; 0.030 kg/ha,92
same,STEME weed control rating,Stellaria media; 0.060 kg/ha,100
same,STEME weed control rating,Stellaria media; 0.120 kg/ha,100
same,STEME weed control rating,Stellaria media; 0.240 kg/ha,100
same,GALAP weed control rating,Galium aparine; 0.240 kg/ha,90
same,ALOMY weed control rating,Alopecurus myosuroides; 0.030 kg/ha,20
same,ALOMY weed control rating,Alopecurus myosuroides; 0.060 kg/ha,92
same,ALOMY weed control rating,Alopecurus myosuroides; 0.120 kg/ha,93
same,ALOMY weed control rating,Alopecurus myosuroides; 0.240 kg/ha,98
same,APESV weed control rating,Apera spica-venti; 0.030 kg/ha,100
same,APESV weed control rating,Apera spica-venti; 0.060 kg/ha,100
same,APESV weed control rating,Apera spica-venti; 0.120 kg/ha,100
same,APESV weed control rating,Apera spica-venti; 0.240 kg/ha,100
same,LOLPE weed control rating,Lolium perenne; 0.030 kg/ha,98
same,LOLPE weed control rating,Lolium perenne; 0.060 kg/ha,98
same,LOLPE weed control rating,Lolium perenne; 0.120 kg/ha,100
same,LOLPE weed control rating,Lolium perenne; 0.240 kg/ha,100
same,SETVI weed control rating,Setaria viridis; 0.030 kg/ha,65
same,SETVI weed control rating,Setaria viridis; 0.060 kg/ha,80
same,SETVI weed control rating,Setaria viridis; 0.120 kg/ha,100
same,SETVI weed control rating,Setaria viridis; 0.240 kg/ha,100
same,MATIN weed control rating,Matricaria inodora; 0.030 kg/ha,100
same,MATIN weed control rating,Matricaria inodora; 0.060 kg/ha,100
same,MATIN weed control rating,Matricaria inodora; 0.120 kg/ha,100
same,MATIN weed control rating,Matricaria inodora; 0.240 kg/ha,100
same,VERPE weed control rating,Veronica persica; 0.030 kg/ha,98
same,VERPE weed control rating,Veronica persica; 0.060 kg/ha,100
same,VERPE weed control rating,Veronica persica; 0.120 kg/ha,100
same,VERPE weed control rating,Veronica persica; 0.240 kg/ha,100
same,LAMPU weed control rating,Lamium purpureum; 0.030 kg/ha,97
same,LAMPU weed control rating,Lamium purpureum; 0.060 kg/ha,100
same,LAMPU weed control rating,Lamium purpureum; 0.120 kg/ha,100
same,LAMPU weed control rating,Lamium purpureum; 0.240 kg/ha,100
same,TRZAWK rating (Selectivity),[1]; 0.030 kg/ha,10
same,TRZAWK rating (Selectivity),[1]; 0.060 kg/ha,15
same,TRZAWK rating (Selectivity),[1]; 0.120 kg/ha,22
same,TRZAWK rating (Selectivity),[1]; 0.240 kg/ha,22
same,TRZAWM rating (Selectivity),[2]; 0.030 kg/ha,15
same,TRZAWM rating (Selectivity),[2]; 0.060 kg/ha,8
same,TRZAWM rating (Selectivity),[2]; 0.120 kg/ha,22
same,TRZAWM rating (Selectivity),[2]; 0.240 kg/ha,35
same,PAPRH weed control rating,PAPRH; 0.030 kg/ha,100
same,PAPRH weed control rating,PAPRH; 0.060 kg/ha,100
same,PAPRH weed control rating,PAPRH; 0.120 kg/ha,100
same,PAPRH weed control rating,PAPRH; 0.240 kg/ha,100
same,VIOAR weed control rating,VIOAR; 0.030 kg/ha,99
same,VIOAR weed control rating,VIOAR; 0.060 kg/ha,100
same,VIOAR weed control rating,VIOAR; 0.120 kg/ha,100
same,VIOAR weed control rating,VIOAR; 0.240 kg/ha,100
Cc1nc(-c2ccc(C(F)(F)F)cc2)nc(Oc2ccnc(Cl)c2)c1C [REF-5],maximum tolerated dose in wheat / dose at which sufficiently selective in wheat,wheat,240 g/ha
same,POAAN weed control rating,Poa annua; 0.030 kg/ha,92
same,POAAN weed control rating,Poa annua; 0.060 kg/ha,100
same,POAAN weed control rating,Poa annua; 0.120 kg/ha,100
same,POAAN weed control rating,Poa annua; 0.240 kg/ha,100
same,STEME weed control rating,Stellaria media; 0.030 kg/ha,10
same,STEME weed control rating,Stellaria media; 0.060 kg/ha,25
same,STEME weed control rating,Stellaria media; 0.120 kg/ha,35
same,STEME weed control rating,Stellaria media; 0.240 kg/ha,70
same,GALAP weed control rating,Galium aparine; 0.030 kg/ha,2
same,GALAP weed control rating,Galium aparine; 0.060 kg/ha,5
same,GALAP weed control rating,Galium aparine; 0.120 kg/ha,50
same,ALOMY weed control rating,Alopecurus myosuroides; 0.030 kg/ha,5
same,ALOMY weed control rating,Alopecurus myosuroides; 0.060 kg/ha,15
same,ALOMY weed control rating,Alopecurus myosuroides; 0.120 kg/ha,30
same,ALOMY weed control rating,Alopecurus myosuroides; 0.240 kg/ha,35
same,APESV weed control rating,Apera spica-venti; 0.030 kg/ha,100
same,APESV weed control rating,Apera spica-venti; 0.060 kg/ha,100
same,APESV weed control rating,Apera spica-venti; 0.120 kg/ha,100
same,APESV weed control rating,Apera spica-venti; 0.240 kg/ha,100
same,LOLPE weed control rating,Lolium perenne; 0.030 kg/ha,40
same,LOLPE weed control rating,Lolium perenne; 0.060 kg/ha,90
same,LOLPE weed control rating,Lolium perenne; 0.120 kg/ha,98
same,LOLPE weed control rating,Lolium perenne; 0.240 kg/ha,99
same,SETVI weed control rating,Setaria viridis; 0.030 kg/ha,20
same,SETVI weed control rating,Setaria viridis; 0.060 kg/ha,50
same,SETVI weed control rating,Setaria viridis; 0.120 kg/ha,95
same,SETVI weed control rating,Setaria viridis; 0.240 kg/ha,100
same,MATIN weed control rating,Matricaria inodora; 0.030 kg/ha,85
same,MATIN weed control rating,Matricaria inodora; 0.060 kg/ha,100
same,MATIN weed control rating,Matricaria inodora; 0.120 kg/ha,100
same,MATIN weed control rating,Matricaria inodora; 0.240 kg/ha,100
same,VERPE weed control rating,Veronica persica; 0.030 kg/ha,55
same,VERPE weed control rating,Veronica persica; 0.060 kg/ha,93
same,VERPE weed control rating,Veronica persica; 0.120 kg/ha,95
same,VERPE weed control rating,Veronica persica; 0.240 kg/ha,100
same,LAMPU weed control rating,Lamium purpureum; 0.030 kg/ha,0
same,LAMPU weed control rating,Lamium purpureum; 0.060 kg/ha,20
same,LAMPU weed control rating,Lamium purpureum; 0.120 kg/ha,55
same,LAMPU weed control rating,Lamium purpureum; 0.240 kg/ha,100
same,TRZAWK rating (Selectivity),[1]; 0.120 kg/ha,1
same,TRZAWK rating (Selectivity),[1]; 0.240 kg/ha,8
same,TRZAWM rating (Selectivity),[2]; 0.120 kg/ha,1
same,TRZAWM rating (Selectivity),[2]; 0.240 kg/ha,8
same,PAPRH weed control rating,PAPRH; 0.030 kg/ha,85
same,PAPRH weed control rating,PAPRH; 0.060 kg/ha,95
same,PAPRH weed control rating,PAPRH; 0.120 kg/ha,100
same,PAPRH weed control rating,PAPRH; 0.240 kg/ha,100
same,VIOAR weed control rating,VIOAR; 0.030 kg/ha,96
same,VIOAR weed control rating,VIOAR; 0.060 kg/ha,97
same,VIOAR weed control rating,VIOAR; 0.120 kg/ha,98
same,VIOAR weed control rating,VIOAR; 0.240 kg/ha,99
